The values that follow come from patent US11186576B2, “Pyrazolo[1,5-A][1,3,5]triazine and pyrazolo[1,5-A]pyrimidine derivatives as CDK inhibitors” (Aurigene Discovery Technologies Limited, priority 2015, dated 2021).

For orientation: inhibition means the percentage by which the read-out fell short of the control. By IC50 is commonly meant the concentration that gives 50% inhibition. A word on the EC50: it is the concentration giving half of the maximal effect. Read a high EC50 as a less potent agent.

One test deals with CDK7/CycH/MNAT1 (Homo sapiens (Human), UniProt P50613). The test can be described thus: Biochemical assay for CDK7 (TR-FRET kinase assay). Conditions: for inhibition at 10 µM: read-out: % inhibition @ 10 μM. Summed up:
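CDK7/CycH/MNAT1 (5 nM) was preincubated with compound for 60 min at room temperature, then reacted for 60 min with 100 nM ULight-MBP and 1 mM ATP in 1% DMSO. Irreversibility was probed with 20, 60 and 180 min preincubations.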
(In general: In TR-FRET formats the signal depends on donor and acceptor labels being close together.)

In test [1] the test system is RNA polymerase II CTD phosphorylation (MDA-MB-231/NCI-H358 cells). The test can be described thus: Inhibition of RNA polymerase II CTD phosphorylation in cell western assay. Conditions: 4 hours incubation, phospho RNA Pol II Ser-5 or Ser-2. The test is classed as cell-based. The method, then: 25000 cells (MDA-MB-231/NCI-H358) were seeded in 96 well black clear bottom plate incubated for overnight before addition of selected compound. 3 fold dilutions of selected compound diluted in DMSO starting from 10 μM, added to cells and incubated for 4 hours at 37° C., 5% CO2 incubator. Cells were washed once with 100 μl of phosphate buffered saline (sigma #P3813), then fixed with 100 μl/well of 4% Para formaldehyde for 60 min at room temperature, in dark. The cells were washed 3 times with 100 μl of wash buffer (PBS with 0.1% Triton-X-100), later blocked for 2 hours at room temperature in blocking buffer (5% BSA in PBST). Cells were stained overnight at 4° C. with Phospho RNA Pol II (S5) (Millipore #04-1572, Abcam #5131) or Phospho RNA Pol II (Ser-2), antibody (Bethyl labs #A300-654-A) in blocking buffer. Post incubation cells were washed with Delifia wash buffer (Perkin Elmer #4010-0010). Cells were treated with LANCE secondary antibodies (LANCE® Eu-W1024 perkin elmer #AD-0076 for phospho Ser-5 CTD RNA pol-II and Delfia Eu-N1 anti rabbit IgG Perkin elmer #AD0106 for phospho Ser-2 CTD RNA pol-II) for 2 hours in assay buffer (Perkin Elmer #1244-111), Cells were washed 3 times with Delfia wash buffer post incubation, Enhancement solution (Perkin Elmer #1244-105) added and incubated for 20 mins. Europium readings were taken in Victor-3 instrument. Cell normalization was done using Hoechst dye (0.5 μg/ml).
Selected compounds were screened in the above mentioned assay procedure. The EC50 values are summarised in the below table; wherein group “A” refers to an EC50 value of less than or equal to 1 μM, group “B” refers to EC50 value in range of 1 to 10 μM and group “C” refers to EC50 value of greater than 10 μM.

Setting [2] is: 10 μM compound, 60 min pre-incubation, 1 mM ATP.
The mark [3] stands for this setting: 60 min pre-incubation, 1 mM ATP, read-out: IC50.

Like-named read-outs stand apart in the source and are kept apart here.

Chain of CDK7/CycH/MNAT1 (P50613 whole entry): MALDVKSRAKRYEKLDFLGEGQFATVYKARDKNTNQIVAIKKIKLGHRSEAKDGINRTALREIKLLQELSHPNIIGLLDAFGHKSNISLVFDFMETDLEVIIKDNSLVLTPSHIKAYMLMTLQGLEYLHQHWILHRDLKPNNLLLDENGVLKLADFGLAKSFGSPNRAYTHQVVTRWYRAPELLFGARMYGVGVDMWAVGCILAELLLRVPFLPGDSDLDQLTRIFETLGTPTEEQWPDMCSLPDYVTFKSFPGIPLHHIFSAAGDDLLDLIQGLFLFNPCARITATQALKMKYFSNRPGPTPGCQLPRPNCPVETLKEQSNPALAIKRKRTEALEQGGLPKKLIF
Chain of CDK7/CycH/MNAT1 (P51946 whole entry partner): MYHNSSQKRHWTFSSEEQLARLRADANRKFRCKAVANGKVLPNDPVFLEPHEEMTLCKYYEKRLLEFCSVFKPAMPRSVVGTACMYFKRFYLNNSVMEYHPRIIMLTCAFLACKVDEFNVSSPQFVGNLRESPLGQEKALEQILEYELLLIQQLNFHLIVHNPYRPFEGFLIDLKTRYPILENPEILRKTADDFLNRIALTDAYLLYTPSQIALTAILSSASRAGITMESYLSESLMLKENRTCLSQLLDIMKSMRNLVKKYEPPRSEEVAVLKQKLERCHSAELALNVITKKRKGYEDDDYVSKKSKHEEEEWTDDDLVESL
Chain of CDK7/CycH/MNAT1 (P51948 whole entry partner): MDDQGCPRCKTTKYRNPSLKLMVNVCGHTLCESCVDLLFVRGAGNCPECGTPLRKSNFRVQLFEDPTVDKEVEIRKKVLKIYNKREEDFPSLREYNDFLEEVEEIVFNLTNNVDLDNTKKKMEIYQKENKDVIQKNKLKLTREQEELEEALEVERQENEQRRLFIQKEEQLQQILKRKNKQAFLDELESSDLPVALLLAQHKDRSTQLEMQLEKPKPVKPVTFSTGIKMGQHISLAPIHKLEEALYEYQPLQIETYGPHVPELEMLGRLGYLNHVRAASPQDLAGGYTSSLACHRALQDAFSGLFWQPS

On to `C=CC(=O)N1CCC(C(=O)Nc2cccc(CNc3nc(NC4CCOCC4)nc4c(C(C)C)cnn34)c2)C1` (single isomer, unassigned) [Compound 5, 1-acryloyl-N-(3-(((8-isopropyl-2-((tetrahydro-2H-pyran-4-yl)amino)pyrazolo[1,5-a][1,3,5]triazin-4-yl)amino)methyl)phenyl)pyrrolidine-3-carboxamide], for which the inhibition at 10 µM at CDK7/CycH/MNAT1 (setting [2]) stood at 94%. Further, at CDK7/CycH/MNAT1 (setting [3]), the IC50 is less than 300 nM. The compound also gave an EC50 in test [1] of 1000 to 10000 nM.

Regarding `C=CC(=O)N1CCC(C(=O)Nc2cccc(CNc3nc(NC4CCOCC4)nc4c(C(C)C)cnn34)c2)C1` (single isomer, unassigned) [Compound 6, 1-acryloyl-N-(3-(((8-isopropyl-2-((tetrahydro-2H-pyran-4-yl)amino)pyrazolo[1,5-a][1,3,5]triazin-4-yl)amino)methyl)phenyl)pyrrolidine-3-carboxamide], on CDK7/CycH/MNAT1 (setting [2]), the “% inhibition @ 10 μM” value amounted to 91%. Moreover, the IC50 at CDK7/CycH/MNAT1 (setting [3]) is less than 300 nM. Besides, the EC50 in test [1] lay in the range of 1000 to 10000 nM.

With `C=CC(=O)N1CCC(C(=O)Nc2cccc(CNc3nc(NC4CCCC(O)C4)nc4c(C(C)C)cnn34)c2)C1` (single isomer, unassigned) [Compound 13, 1-acryloyl-N-(3-(((2-((3-hydroxycyclohexyl)amino)-8-isopropylpyrazolo[1,5-a][1,3,5]triazin-4-yl)amino)methyl)phenyl)pyrrolidine-3-carboxamide], at CDK7/CycH/MNAT1 (setting [2]), the “% inhibition @ 10 μM” value came to 93%. Besides, the IC50 at CDK7/CycH/MNAT1 (setting [3]) is 300 to 1000 nM. Further, in test [1], the EC50 lay within 1000 to 10000 nM.

On to `C=CC(=O)N1CCC(C(=O)Nc2cccc(CNc3nc(OC4CCN(C)CC4)nc4c(C(C)C)cnn34)c2)C1` (single isomer, unassigned) [Compound 109, 1-acryloyl-N-(3-(((8-isopropyl-2-((1-methylpiperidin-4-yl)oxy)pyrazolo[1,5-a][1,3,5]triazin-4-yl)amino)methyl)phenyl)pyrrolidine-3-carboxamide], for which, at CDK7/CycH/MNAT1 (setting [2]), the inhibition at 10 µM came out at 98%. Further, the IC50 on CDK7/CycH/MNAT1 (setting [3]) was less than 300 nM. This compound also returned an EC50 in test [1] of 1000 to 10000 nM.

For `C=CC(=O)N1CCC(C(=O)Nc2cccc(CNc3nc(OC4CCN(C)CC4)nc4c(C(C)C)cnn34)c2)C1` (single isomer, unassigned) [Compound 110, 1-acryloyl-N-(3-(((8-isopropyl-2-((1-methylpiperidin-4-yl)oxy)pyrazolo[1,5-a][1,3,5]triazin-4-yl)amino)methyl)phenyl)pyrrolidine-3-carboxamide], the “% inhibition @ 10 μM” value at CDK7/CycH/MNAT1 (setting [2]) is 99%. In addition, at CDK7/CycH/MNAT1 (setting [3]), the IC50 was less than 300 nM. In test [1], this compound displayed an EC50 of 1000 to 10000 nM.

For the compound `C=CC(=O)N1CCCC(C(=O)Nc2ccc(CNc3nc(OC4CCN(C)CC4)nc4c(C(C)C)cnn34)c[n+]2[O-])C1` (stereo not drawn) [Compound 120, 2-(1-acryloylpiperidine-3-carboxamido)-5-(((8-isopropyl-2-((1-methylpiperidin-4-yl)oxy)pyrazolo[1,5-a][1,3,5]triazin-4-yl)amino)methyl)pyridine 1-oxide], at CDK7/CycH/MNAT1 (setting [2]), the inhibition at 10 µM is 93%. Further, the IC50 at CDK7/CycH/MNAT1 (setting [3]) is less than 300 nM.

In turn, `C=CC(=O)N1CCN(C(=O)Oc2cccc(CNc3nc(OC4CCN(C)CC4)nc4c(C(C)C)cnn34)c2)CC1` [Compound 121, 3-(((8-isopropyl-2-((1-methylpiperidin-4-yl)oxy)pyrazolo[1,5-a][1,3,5]triazin-4-yl)amino)methyl)phenyl 4-acryloylpiperazine-1-carboxylate] gave an IC50 against CDK7/CycH/MNAT1 (IC50, 60 min pre-incubation, 1 mM ATP) of less than 300 nM. In addition, at CDK7/CycH/MNAT1, the inhibition at 10 µM is 93%.

Regarding `CC(C)c1cnn2c(NCc3ccc(F)c(NC(=O)C4CCCN(C(=O)/C=C/CN(C)C)C4)c3)nc(OC3CCN(C)CC3)nc12` (stereo not drawn) [Compound 123, (E)-1-(4-(dimethylamino)but-2-enoyl)-N-(2-fluoro-5-(((8-isopropyl-2-((1-methylpiperidin-4-yl)oxy)pyrazolo[1,5-a][1,3,5]triazin-4-yl)amino)methyl)phenyl)piperidine-3-carboxamide], at CDK7/CycH/MNAT1 (setting [2]), the inhibition at 10 µM was 96%. In addition, the IC50 on CDK7/CycH/MNAT1 (setting [3]) was less than 300 nM.

For the compound `C=CC(=O)NC1CCC(C(=O)Nc2cccc(Nc3nc(OC4CCN(C)CC4)nc4c(C(C)C)cnn34)c2)CC1` (stereo not drawn) [Compound 126, (1,4-cis)-4-acrylamido-N-(3-((8-isopropyl-2-((1-methylpiperidin-4-yl)oxy)pyrazolo[1,5-a][1,3,5]triazin-4-yl)amino)phenyl)cyclohexane-1-carboxamide], at CDK7/CycH/MNAT1 (setting [2]), the inhibition at 10 µM is 80%.

As for `C=CC(=O)N[C@H]1CC[C@@H](C(=O)Nc2cccc(Nc3nc(OC4CCN(C)CC4)nc4c(C(C)C)cnn34)c2)CC1` [Compound 126, (1,4-cis)-4-acrylamido-N-(3-((8-isopropyl-2-((1-methylpiperidin-4-yl)oxy)pyrazolo[1,5-a][1,3,5]triazin-4-yl)amino)phenyl)cyclohexane-1-carboxamide], at CDK7/CycH/MNAT1 (setting [3]), the IC50 was greater than 1000 nM.

On to `C=CC(=O)N1CCC(C(=O)Nc2cccc(Nc3nc(OC4CCN(C)CC4)nc4c(C(C)C)cnn34)c2)CC1` [Compound 127, 1-acryloyl-N-(3-((8-isopropyl-2-((1-methylpiperidin-4-yl)oxy)pyrazolo[1,5-a][1,3,5]triazin-4-yl)amino)phenyl)piperidine-4-carboxamide], for which the inhibition at 10 µM on CDK7/CycH/MNAT1 (setting [2]) amounted to 95%. For the same compound, the IC50 at CDK7/CycH/MNAT1 (setting [3]) was less than 300 nM.

With `CC(C)c1cnn2c(Nc3cccc(NC(=O)c4ccc(NC(=O)/C=C/CN(C)C)cc4)c3)nc(OC3CCN(C)CC3)nc12` [Compound 130, (E)-4-(4-(dimethylamino)but-2-enamido)-N-(3-((8-isopropyl-2-((1-methylpiperidin-4-yl)oxy)pyrazolo[1,5-a][1,3,5]triazin-4-yl)amino)phenyl)benzamide], the IC50 at CDK7/CycH/MNAT1 (setting [3]) was less than 300 nM. Besides, on CDK7/CycH/MNAT1, the inhibition at 10 µM is 97%.

Consider `CC(C)c1cnn2c(Nc3cccc(C(=O)NC4CCCN(C(=O)/C=C/CN(C)C)C4)c3)nc(OC3CCN(C)CC3)nc12` (stereo not drawn) [Compound 133, (E)-N-(1-(4-(dimethylamino)but-2-enoyl)piperidin-3-yl)-3-((8-isopropyl-2-((1-methylpiperidin-4-yl)oxy)pyrazolo[1,5-a][1,3,5]triazin-4-yl)amino)benzamide], for which the inhibition at 10 µM at CDK7/CycH/MNAT1 (setting [2]) turned out to be 97%. Also, the IC50 on CDK7/CycH/MNAT1 (setting [3]) is less than 300 nM.

`CC(C)c1cnn2c(NCc3cccc(NC(=O)[C@H]4CC[C@@H](NC/C=C/C(=O)N(C)C)CC4)c3)nc(OC3CCN(C)CC3)nc12` [Compound 135, (1s,4s)-4-(((E)-4-(dimethylamino)-4-oxobut-2-en-1-yl)amino)-N-(3-(((8-isopropyl-2-((1-methylpiperidin-4-yl)oxy)pyrazolo[1,5-a][1,3,5]triazin-4-yl)amino)methyl)phenyl)cyclohexane-1-carboxamide]: the inhibition at 10 µM at CDK7/CycH/MNAT1 (setting [2]) was found to be 97%. The IC50 on CDK7/CycH/MNAT1 (setting [3]) was less than 300 nM.

As to `C=CC(=O)N1CCC(C(=O)Nc2cccc(CNc3nc(OC)nc4c(C(C)C)cnn34)c2)CC1` [Compound 136, 1-acryloyl-N-(3-(((8-isopropyl-2-methoxypyrazolo[1,5-a][1,3,5]triazin-4-yl)amino)methyl)phenyl)piperidine-4-carboxamide], on CDK7/CycH/MNAT1 (setting [2]), the inhibition at 10 µM was found to be 73%. In addition, on CDK7/CycH/MNAT1 (setting [3]), the IC50 was greater than 1000 nM.

On to `CC(C)c1cnn2c(NCc3ccccc3N3CCN(C(=O)/C=C/CN(C)C)CC3)nc(NC3CCOCC3)nc12` [Compound 137, (E)-4-(dimethylamino)-1-(4-(2-(((8-isopropyl-2-((tetrahydro-2H-pyran-4-yl)amino)pyrazolo[1,5-a][1,3,5]triazin-4-yl)amino)methyl)phenyl)piperazin-1-yl)but-2-en-1-one], for which, at CDK7/CycH/MNAT1 (setting [2]), the inhibition at 10 µM turned out to be 99%. The IC50 at CDK7/CycH/MNAT1 (setting [3]) was less than 300 nM.

As for `CC(C)c1cnn2c(NCC3CCN(C(=O)/C=C/CN4CCCC4)CC3)nc(NC3CCOCC3)nc12` [Compound 138, (E)-1-(4-(((8-isopropyl-2-((tetrahydro-2H-pyran-4-yl)amino)pyrazolo[1,5-a][1,3,5]triazin-4-yl)amino)methyl)piperidin-1-yl)-4-(pyrrolidin-1-yl)but-2-en-1-one], the inhibition at 10 µM on CDK7/CycH/MNAT1 (setting [2]) was 64%. At CDK7/CycH/MNAT1 (setting [3]), the IC50 is greater than 1000 nM.

On to `C=CC(=O)N1CCC1C(=O)Nc1cccc(CNc2cc(NC3CCOCC3)nc3c(C(C)C)cnn23)c1` (stereo not drawn) [Compound 139, 1-acryloyl-N-(3-(((3-isopropyl-5-((tetrahydro-2H-pyran-4-yl)amino)pyrazolo[1,5-a]pyrimidin-7-yl)amino)methyl)phenyl)azetidine-2-carboxamide], for which, on CDK7/CycH/MNAT1 (setting [2]), the inhibition at 10 µM amounted to 98%. Also, the IC50 on CDK7/CycH/MNAT1 (setting [3]) is less than 300 nM.
